Measurements taken from patent US7692030B2, “Conjugates of artemisinin-related endoperoxides and hydrazone derivatives for the treatment of cancer” (University of Washington, priority 2006, dated 2010).

Assays:
HCT-15 = assay: NCI DTP human tumor cell line screen (SRB); assay type: cell-based; conditions: Colon Cancer, 10 μM, 48 h
Protocol: (§1) Representative compounds of the invention, prepared as described in EXAMPLES 1-6, were submitted to the Developmental Therapeutics Program of the United States National Cancer Institute (NCl) to screen for anti-cancer activity. The anti-cancer activities of the six compounds were tested against approximately 60 human tumor cell lines representing leukemia, melanoma, and cancers of the lung, colon, breast, ovary, kidney, prostate, and brain. The following screening methodology was provided by the NCl. […] For experimental screens, cells were inoculated into 96 well microtiter plates in 100 μL at plating densities ranging from 5,000 to 40,000 cells/well depending on the doubling time of individual cell lines. After cell inoculation, the microtiter plates were incubated at 37° C., 5% carbon dioxide, 95% air and 100% relative humidity for 24 hours prior to addition of the compounds. After 24 hours of incubation, two plates of each cell line were fixed in situ with trichloroacetic acid (TCA) to represent a measurement of the cell population for each cell line at the time of compound addition (Tz). The compounds were solubilized in dimethyl sulfoxide at 400-fold the desired final maximum test concentration and stored frozen prior to use. At the time of drug addition, frozen aliquots of the compounds thawed and diluted with complete medium containing 50 μg/ml gentamicin. Aliquots of 100 μl of these different compound dilutions were added to the appropriate microtiter wells already containing 100 μl of medium, resulting in the required final compound concentration of 10 μM. Following compound addition, the plates were incubated for an additional 48 h at 37° C., 5% carbon dioxide, 95% air, and 100% relative humidity. For adherent cells, the assay was terminated by the addition of cold TCA. Cells were fixed in situ by the gentle addition of 50 μl of cold 50% (w/v) TCA (final concentration, 10% TCA) and incubated for 60 minutes at 4° C. The supernatant was discarded, and the plates were washed five times with tap water and air dried. Sulforhodamine B (SRB) solution (100 μl) at 0.4% (w/v) in 1% acetic acid was added to each well, and plates were incubated for 10 minutes at room temperature. After staining, unbound dye was removed by washing five times with 1% acetic acid and the plates were air dried. Bound stain was subsequently solubilized with 10 mM trizma base, and the absorbance was read on an automated plate reader at a wavelength of 515 nm. For suspension cells, the methodology was the same except that the assay was terminated by fixing settled cells at the bottom of the wells by gently adding 50 μl of 80% TCA (final concentration, 16% TCA). Using the three absorbance measurements [time zero, (Tz), control growth, (C), and test growth in the presence of compound (Ti)], the percentage growth was calculated at each of the compound concentrations levels. Percentage growth inhibition was calculated with the following algorithms: [(Ti−Tz)/(C−Tz)]×100 for concentrations for which Ti>/=Tz [(Ti−Tz)/Tz]×100 for concentrations for which Ti<Tz The results of the NCl in vitro anticancer screening with six compounds against various human tumor cell lines are presented below in Tables 2-7. […] The growth percent mean, delta, and range for each compound are given below.

UACC-62 = assay: NCI DTP human tumor cell line screen (SRB); assay type: cell-based; conditions: Melanoma, 10 μM, 48 h
Protocol: as §1

U251 = assay: NCI DTP human tumor cell line screen (SRB); assay type: cell-based; conditions: CNS Cancer, 10 μM, 48 h
Protocol: as §1

LOX IMVI = assay: NCI DTP human tumor cell line screen (SRB); assay type: cell-based; conditions: Melanoma, 10 μM, 48 h
Protocol: as §1

UACC-257 = assay: NCI DTP human tumor cell line screen (SRB); assay type: cell-based; conditions: Melanoma, 10 μM, 48 h
Protocol: as §1

HT29 = assay: NCI DTP human tumor cell line screen (SRB); assay type: cell-based; conditions: Colon Cancer, 10 μM, 48 h
Protocol: as §1

OVCAR-8 = assay: NCI DTP human tumor cell line screen (SRB); assay type: cell-based; conditions: Ovarian Cancer, 10 μM, 48 h
Protocol: as §1

HCC-2998 = assay: NCI DTP human tumor cell line screen (SRB); assay type: cell-based; conditions: Colon Cancer, 10 μM, 48 h
Protocol: as §1

K-562 = assay: NCI DTP human tumor cell line screen (SRB); assay type: cell-based; conditions: Leukemia, 10 μM, 48 h
Protocol: as §1

MCF7 = assay: NCI DTP human tumor cell line screen (SRB); assay type: cell-based; conditions: Breast Cancer, 10 μM, 48 h
Protocol: as §1

SNB-19 = assay: NCI DTP human tumor cell line screen (SRB); assay type: cell-based; conditions: CNS Cancer, 10 μM, 48 h
Protocol: as §1

RPMI-8226 = assay: NCI DTP human tumor cell line screen (SRB); assay type: cell-based; conditions: Leukemia, 10 μM, 48 h
Protocol: as §1

OVCAR-5 = assay: NCI DTP human tumor cell line screen (SRB); assay type: cell-based; conditions: Ovarian Cancer, 10 μM, 48 h
Protocol: as §1

EKVX = assay: NCI DTP human tumor cell line screen (SRB); assay type: cell-based; conditions: Non-Small Cell Lung Cancer, 10 μM, 48 h
Protocol: as §1

UO-31 = assay: NCI DTP human tumor cell line screen (SRB); assay type: cell-based; conditions: Renal Cancer, 10 μM, 48 h
Protocol: as §1

SF-295 = assay: NCI DTP human tumor cell line screen (SRB); assay type: cell-based; conditions: CNS Cancer, 10 μM, 48 h
Protocol: as §1

SK-MEL-28 = assay: NCI DTP human tumor cell line screen (SRB); assay type: cell-based; conditions: Melanoma, 10 μM, 48 h
Protocol: as §1

OVCAR-3 = assay: NCI DTP human tumor cell line screen (SRB); assay type: cell-based; conditions: Ovarian Cancer, 10 μM, 48 h
Protocol: as §1

NCI-H226 = assay: NCI DTP human tumor cell line screen (SRB); assay type: cell-based; conditions: Non-Small Cell Lung Cancer, 10 μM, 48 h
Protocol: as §1

OVCAR-4 = assay: NCI DTP human tumor cell line screen (SRB); assay type: cell-based; conditions: Ovarian Cancer, 10 μM, 48 h
Protocol: as §1

NCI-H23 = assay: NCI DTP human tumor cell line screen (SRB); assay type: cell-based; conditions: Non-Small Cell Lung Cancer, 10 μM, 48 h
Protocol: as §1

SK-MEL-2 = assay: NCI DTP human tumor cell line screen (SRB); assay type: cell-based; conditions: Melanoma, 10 μM, 48 h
Protocol: as §1

MDA-MB-231/ATCC = assay: NCI DTP human tumor cell line screen (SRB); assay type: cell-based; conditions: Breast Cancer, 10 μM, 48 h
Protocol: as §1

A498 = assay: NCI DTP human tumor cell line screen (SRB); assay type: cell-based; conditions: Renal Cancer, 10 μM, 48 h
Protocol: as §1

SK-MEL-5 = assay: NCI DTP human tumor cell line screen (SRB); assay type: cell-based; conditions: Melanoma, 10 μM, 48 h
Protocol: as §1

NCI-H460 = assay: NCI DTP human tumor cell line screen (SRB); assay type: cell-based; conditions: Non-Small Cell Lung Cancer, 10 μM, 48 h
Protocol: as §1

CCRF-CEM = assay: NCI DTP human tumor cell line screen (SRB); assay type: cell-based; conditions: Leukemia, 10 μM, 48 h
Protocol: as §1

HOP-62 = assay: NCI DTP human tumor cell line screen (SRB); assay type: cell-based; conditions: Non-Small Cell Lung Cancer, 10 μM, 48 h
Protocol: as §1

TK-10 = assay: NCI DTP human tumor cell line screen (SRB); assay type: cell-based; conditions: Renal Cancer, 10 μM, 48 h
Protocol: as §1

T-47D = assay: NCI DTP human tumor cell line screen (SRB); assay type: cell-based; conditions: Breast Cancer, 10 μM, 48 h
Protocol: as §1

HS 578T = assay: NCI DTP human tumor cell line screen (SRB); assay type: cell-based; conditions: Breast Cancer, 10 μM, 48 h
Protocol: as §1

HL-60(TB) = assay type: cell-based, human; conditions: Leukemia, 10 μM, 48 h
Protocol: The human tumor cell lines of the cancer screening panel were grown in RPMI 1640 medium containing 5% fetal bovine serum and 2 mM L-glutamine. For experimental screens, cells were inoculated into 96 well microtiter plates in 100 μL at plating densities ranging from 5,000 to 40,000 cells/well depending on the doubling time of individual cell lines. After cell inoculation, the microtiter plates were incubated at 37° C., 5% carbon dioxide, 95% air and 100% relative humidity for 24 hours prior to addition of the compounds.

Row | Compound | Growth Percent (HCT-15) | Growth Percent (UACC-62) | Growth Percent (U251) | Growth Percent (LOX IMVI) | Growth Percent (UACC-257) | Growth Percent (HT29) | Growth Percent (OVCAR-8) | Growth Percent (HCC-2998) | Growth Percent (K-562) | Growth Percent (MCF7) | Growth Percent (SNB-19) | Growth Percent (RPMI-8226) | Growth Percent (OVCAR-5) | Growth Percent (EKVX) | Growth Percent (UO-31) | Growth Percent (SF-295) | Growth Percent (SK-MEL-28) | Growth Percent (OVCAR-3) | Growth Percent (NCI-H226) | Growth Percent (OVCAR-4) | further results
1 | CC1CCC2C(C)C(OCCn3cc(C(=O)NN=Cc4ccccc4O)nn3)OC3OC4(C)CCC1C32OO4 (stereo not shown) [ART-Triazole-Sal, N′-(2-hydroxybenzylidene)-1-(dihydroxyartemisinin-ethyl)-1H-1,2,3-triazole-4-carbohydrazide] | 34.01% | 10.70% | 24.89% | 6.87% | 19.39% | 31.44% | 25.82% | 25.98% | 17.31% | 13.62% | 45.73% | 18.69% | 41.28% | 35.04% | −28.61% | 24.32% | 27.59% | 50.36% | 26.98% | 15.89% | Growth Percent (NCI-H23): 30.70%; Growth Percent (SK-MEL-2): −15.86%; Growth Percent (MDA-MB-231/ATCC): 52.54%; Growth Percent (A498): 50.94%; Growth Percent (SK-MEL-5): 12.45%; Growth Percent (NCI-H460): 2.83%; Growth Percent (CCRF-CEM): −14.86%; Growth Percent (HOP-62): 24.18%; Growth Percent (TK-10): 38.15%; Growth Percent (T-47D): 37.45%; Growth Percent (HS 578T): 48.29%; Growth Percent (HL-60(TB)): −31.16%
2 | Cc1ncc(CO)c(C=NNC(=O)c2ccc(COC3OC4OC5(C)CCC6C(C)CCC(C3C)C46OO5)cc2)c1O (stereo not shown) [ART-Phe-Pyridoxal, N′-(5-hydroxy-3-hydroxymethyl-2-methyl-4-pyridylidene)-4-(dihydroxyartemisinin-methyl)-phenyl carbohydrazide] | 15.22% | −8.10% | 17.87% | 4.22% | 1.40% | 32.72% | 31.40% | 27.38% | 22.86% | 1.55% | 4.26% | 9.56% | 44.98% | 12.34% | 4.39% | 25.08% | −7.02% | 19.87% | 4.49% | 21.42% | Growth Percent (NCI-H23): 13.86%; Growth Percent (SK-MEL-2): 20.14%; Growth Percent (MDA-MB-231/ATCC): 29.96%; Growth Percent (A498): −36.78%; Growth Percent (SK-MEL-5): −43.83%; Growth Percent (NCI-H460): −3.33%; Growth Percent (CCRF-CEM): 2.34%; Growth Percent (HOP-62): 20.25%; Growth Percent (TK-10): 6.35%; Growth Percent (T-47D): −2.71%; Growth Percent (HS 578T): −15.69%; Growth Percent (HL-60(TB)): −4.98%
